The target in one data set is T1, p70 S6K (Homo sapiens, UniProt P23443).
T1 construct: endogenous in cells; host or cells: HCT 116 human colon carcinoma xenograft tumours in athymic nude mice
As to the kind of experiment: Determination of p70 S6K In Vivo Target Inhibition (HCT 116). On the set-up: species or system athymic nude mice. To be noted: HCT 116 xenograft, PO; potency based on plasma exposure; phosphorylation of S6RP serine 240/244. As to the method: HCT 116 human colon carcinoma cells* (5×10^6) are subcutaneously implanted into the flank of athymic nude mice in 0.2 mL of matrigel. Two weeks post-implantation, mice are dosed PO according to a time course, single dose/single time point, or dose response protocol for the determination of TMED50 (threshold minimum effective dose). Tumors are flash frozen at harvest and blood is collected for the determination of parent compound plasma exposure and the calculation of TMEC50 (threshold minimum effective concentration) in the case of dose response studies. Tumors or tissues are homogenized in XY Lysis buffer (10 μg/mL Leupeptin, 10 μg/mL Trypsin-Chymotrypsin Inhibitor, 10 μg/mL Tosyl phenylalanyl chloromethyl ketone (TPCK), 10 μg/mL Aprotinin, 60 mM Beta-Glycerol Phosphate, 1% Triton X100, 25 mM Tris pH 7.5, 2.5 mM Pyrophosphate, 150 mM NaCl, 2 mM p-tosyl-L-arginine methyl ester (TAME), 15 mM para-nitrophenyl phosphate (pNPP), 5 mM Benzamidine, 1 mM Na Vanadate, 10 mM NaF, 50 μg/mL phenylmethane sulofnyl fluoride (PMSF), 1 mM DTT, 15 mM EDTA pH 8.0, 5 mM EGTA pH 8.0, 1 μM Microcystin, 1 μM Okadaic Acid, and 1 Roche Complete protease inhibitor mini-tablet per 10 mL) using Lysing Matrix A tubes (MP Biomedicals, Solon, Ohio, cat# 6910-500) and a BIO101 Thermo Savant Fast Prep FP12. Lysates are aliquoted and either assayed immediately or stored at −80° C. for later testing. In Vivo Target Inhibition of p70 S6K is measured utilizing Meso Scale Discovery (Gaithersburg, Md.) ELISA technology to assess effects of the compound on phosphorylation of the serine 240/244 site of the downstream effector S6RP. Phosphorylation of p70 S6K(T389) and Akt(S473) is also assessed using this technology in a multiplex format. In summary, 20 μg of lysate is added to a carbon electrode 96-well plate pre-spotted with the appropriate capture antibodies. The protein of interest is probed using a ruthenium labeled detection antibody. Upon the passage of current over the electrode in the presence of read buffer containing the co-reactant TPA, electro-chemiluminescence results in the generation of light which is quantified and recorded using the MSD Sector 6000 instrument. For each study, percent inhibitions are calculated relative to the vehicle control group and ANOVA analysis is performed using the JMP software package for the determination of statistical significance. The following compounds were tested essentially as described above and have the following potencies based on plasma exposure.

For another data set, the target named is T2, P70 S6 kinase (T412E) (Homo sapiens, UniProt P23443, T412E).
T2 construct: purchased Upstate USA, Inc. (Charlottesville, Va.)
T2 sequence (P23443 whole entry T412E): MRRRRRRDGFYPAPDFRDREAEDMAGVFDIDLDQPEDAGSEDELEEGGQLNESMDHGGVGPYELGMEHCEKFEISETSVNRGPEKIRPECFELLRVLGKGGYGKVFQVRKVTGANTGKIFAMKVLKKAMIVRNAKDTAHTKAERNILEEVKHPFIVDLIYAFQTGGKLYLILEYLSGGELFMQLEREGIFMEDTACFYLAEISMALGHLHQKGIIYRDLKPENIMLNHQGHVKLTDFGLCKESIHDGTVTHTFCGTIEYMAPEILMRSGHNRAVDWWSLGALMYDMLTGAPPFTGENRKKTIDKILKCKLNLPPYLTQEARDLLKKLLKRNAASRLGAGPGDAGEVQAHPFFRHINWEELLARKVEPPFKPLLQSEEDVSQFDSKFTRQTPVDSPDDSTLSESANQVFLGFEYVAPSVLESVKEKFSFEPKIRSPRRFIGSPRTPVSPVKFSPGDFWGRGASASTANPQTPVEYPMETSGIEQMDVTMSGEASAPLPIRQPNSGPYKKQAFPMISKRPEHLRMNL
Nature of the data set: Inhibition of p70S6 Kinase. It is filed as biochemical. To be noted: 25 μM ATP, 5 nM enzyme, relative IC50. As to the method: P70 S6 kinase (T412E) from Upstate USA, Inc. (Charlottesville, Va.) is preincubated with 10 concentrations of compound in a 15 μL volume for 30 min at room temperature in 96-well plates. PKA, PKC, MAPKAP-K1 Substrate from AnaSpec (San Jose, Calif.) and gamma ^33P-ATP from PerkinElmer (Waltham, Mass.) is added to initiate the reaction which is allowed to proceed for 60 minutes at room temperature in a final 25 μL volume under the following conditions: 10 mM HEPES pH 7.5, 10 mM MgCl2, 1.0 mM DTT, 0.082 mM EGTA, 0.005% TRITON X-100™, 25 μM, 25 μM ATP, 40 μCi/mL, 4 μM substrate, and 5 nM enzyme. Reactions are terminated with 75 μL 10% H3PO4 and 85 μL of quenched reaction mix is transferred to a phosphocellulose filter plate (Millipore #MAPHN0B50) and washed with 0.5% H3PO4 using a vacuum manifold. 100 μL of Microscint 20 (Packard #60113621) is added to each well and plates with liner are counted using a Wallac Beta Counter. Relative IC50 values are calculated by non-linear four parameter fitting.

Data set [1] relates to HUVEC / neo NHDF co-culture cord formation. As to the kind of experiment: Angiogenesis Cord Formation Assay. The data set is classed as cell-based. To be noted: Homo sapiens, 288 h. The method, then: Human neonatal dermal fibroblast cells (neo NHDF) are seeded into Parkard 96 well plate on the first day, and incubated in the 37° C. and 5% CO2 incubator. Human umbilical vein endothelial cells (HUVEC) are then plated on the top of neo NHDF cells. Starting the third day, the co-culture is treated with eight-dose series of the test compound (starting with 20 μM, 1:3 serial dilution) in the presence of 20 ng/mL vascular endothelial growth factor (VEGF). The compound and VEGF are replenished every two to three days. The assay is conducted over a 12 day period. Cells are fixed by cold 70% ethanol for 30 minutes on the 12th day and processed for anti human CD31 immunofluorescence. Cultures are incubated with mouse anti human CD31 antibody and then stained by goat anti mouse alexa 488 secondary antibody. Cells are also stained by Hoechst to visualize the nucleus. After the staining, the cord formation is captured and quantified using Cellomics Arrayscan® VTI high content image analysis platform adopting the tube formation BioApplication. Two parameters, the cord area and angiogenesis index, are used to calculate the relative potency of the test compound in this angiogenesis assay. The compounds of Examples 5 and 10 were tested and analyzed essentially as described above.

The next data set can be described thus: Oral bioavailability. To be noted: rat, plasma; Sprague Dawley rats, 1 mg/kg (IV) or 10 mg/kg (oral gavage). The data set is classed as in vivo. The method, then:
The bioavailability of compounds of the present invention may be measured by methods known to the skilled artisan. For example a compound of Formula I is administered to Sprague Dawley rats at doses of 1 mg/kg (IV) or 10 mg/kg (oral gavage) in a conventional formulation. An oral formulation may include a suspension (0.25% PS80, 1% HEC, 0.05% Antifoam in water) using milled compound of Formula I. Plasma samples are obtained and concentrations of the compound of Formula I are measured. The compound of Example 57 was evaluated in a method substantially similar to that described above and found to have an oral bioavailability of >100%.

Another data set has as its system PC3. Nature of the data set: Cell assay (Alamar Blue, 72 hours) PC3. The data set is classed as cell-based. To be noted: Homo sapiens, PC-3. As to the method: (§1) Cells are maintained, then typsinized and suspended in Dulbecco's modified Eagle's medium (DMEM_containing 10% fetal bovine serum (FBS), 25 mM 4-(2-hydroxyethyl)-1-piperazineethanesulfonic acid (HEPES), 1.0 mM Sodium Pyruvate and 0.1 mM Non Essential Amino Acids (NEAA). 1×10^3 HCT116 and 2×10^3 Cells may be seeded in 50 μL in 96 well plates and incubated in 5% CO2 at 37° C. overnight. Compounds are prepared at desired starting concentrations and serial diluted in DMSO. 4 μL of diluted compounds are transferred in 1 mL 10% FBS DMEM to make up 2× concentrations as added 50 μL to the 50 μL in the presence of cells for dosing. The plates are incubated at 37° C. in 5% CO2 for 72 hours. At the end of incubation period, 10 μL Alamar Blue is added and after 2 hours reaction the measurement is determined in CytoFluor at 530 nm excitation, 580 nm emission and Gain 45. The following compounds were tested in the following cell lines essentially as described above.
On the technique in general: Resazurin is reduced to fluorescent resorufin, in cell work by metabolically active cells.

Another data set has as its system A549. Nature of the data set: Cell assay (Alamar Blue, 72 hours) A549. The data set is classed as cell-based. To be noted: Homo sapiens. As to the method:
as §1

The subject of another data set is K562. As to the kind of experiment: Cell assay (Alamar Blue, 72 hours) K562. The data set is classed as cell-based. To be noted: Homo sapiens. As to the method: as §1
The next data set concerns U87MG. Nature of the data set: Cell assay (Alamar Blue, 72 hours) U87MG. The data set is classed as cell-based. To be noted: Homo sapiens, U-87 MG. The method, then:
as §1

The test system of a further data set is A2780. Nature of the data set: Cell assay (Alamar Blue, 72 hours) A2780. The data set is classed as cell-based. To be noted: Homo sapiens. As to the method: as §1
The next data set deals with PANC-1. As to the kind of experiment: Cell assay (Alamar Blue, 72 hours) PANC-1. It is filed as cell-based. To be noted: Homo sapiens. As to the method: as §1
In a further data set the test system is NCI-H460. Nature of the data set: Cell assay (Alamar Blue, 72 hours) NCI-H460. The data set is classed as cell-based. To be noted: Homo sapiens. The method, then: as §1
Another data set relates to Rat 13762. Nature of the data set: Cell assay (Alamar Blue, 72 hours) Rat 13762. It is filed as cell-based. The method, then:
as §1

pIC50: −log10 of the molar value. Structures can show the parent of a compound that is named as a salt.

The values that follow come from patent US8093383B2, “P70 S6 kinase inhibitors” (Eli Lilly and Company, priority 2007, dated 2012).

Broadly, the pIC50 is the IC50 on a negative log10 scale, so that one unit is a factor of ten. Lower therefore signals a large IC50. The term bioavailability denotes dose-corrected exposure relative to a reference, in per cent. A higher bioavailability goes with good availability.

T1 sequence (P23443 whole entry): as the sequence (P23443 whole entry T412E) above, with E412T counted along it

With `Fc1ccc(-c2c[nH]c(C3CCN(c4ncnc5[nH]ccc45)CC3)n2)cc1C(F)(F)F` [Example 7, 4-{4-[4-(4-Fluoro-3-trifluoromethyl-phenyl)-1H-imidazol-2-yl]-piperidin-1-yl}-7H-pyrrolo[2,3-d]pyrimidine hydrochloride], the figures for the pIC50 against p70 S6K and at P70 S6 kinase (T412E) were 5.72 and 7.99, respectively.

With `Fc1ccc(-c2cnc(C3CCN(c4ncnc5[nH]cnc45)CC3)[nH]2)cc1C(F)(F)F` [Example 8, 6-{4-[5-(4-Fluoro-3-trifluoromethyl-phenyl)-1H-imidazol-2-yl]-piperidin-1-yl}-9H-purine hydrochloride], the pIC50 at p70 S6K was 4.32; against P70 S6 kinase (T412E), 8.12.

For the molecule `Cn1cc(-c2ccc(F)c(C(F)(F)F)c2)nc1C1CCN(c2ncnc3[nH]ncc23)CC1` [Example 10, 4-{4-[4-(4-Fluoro-3-trifluoromethyl-phenyl)-1-methyl-1H-imidazol-2-yl]-piperidin-1-yl}-1H-pyrazolo[3,4-d]pyrimidine hydrochloride], the pIC50 at p70 S6K is 5.71; in [1] it was 5.32; against P70 S6 kinase (T412E) it was 8.42.

Consider `Cc1ccc(S(=O)(=O)O)cc1.Cn1cc(-c2ccc(F)c(C(F)(F)F)c2)nc1C1CCN(c2ncnc3[nH]ncc23)CC1` [Example 57, 4-{4-[4-(4-Fluoro-3-trifluoromethyl-phenyl)-1-methyl-1H-imidazol-2-yl]-piperidin-1-yl}-1H-pyrazolo[3,4-d]pyrimidine p-toluenesulfonate], for which, in the data set “Oral bioavailability”, the bioavailability is > 100%. The pIC50 in the data set on PC3 was 4.50; with A549, 4.99; with K562, 4.78; with U87MG, 4.56; in the data set on A2780 it was 4.60; against P70 S6 kinase (T412E), 7.90. The negative-log IC50 (pIC50) was 4.52 in the data set on PANC-1, 4.62 in the data set with NCI-H460 and 4.29 in the data set with Rat 13762.
